In patent US8110570B2, “Modulators of acetyl-coenzyme A carboxylase and methods of use thereof” (Cropsolution, Inc., priority 2008, dated 2012):

How the values were obtained:
hACC2 = molecular target: T1, hACC2 (Homo sapiens, UniProt O00763); assay: [14C]bicarbonate incorporation assay, overall ACC activity; format: biochemical; settings: recombinant hACC2, overall ACC activity
T1 construct: delete amino acids 1-148 and add Met-Gly in front of Lys149 in the final product; His tag (C); made in house; host or cells: baculovirus, Sf9 insect cells
T1 sequence (O00763 149-2458 limits assumed): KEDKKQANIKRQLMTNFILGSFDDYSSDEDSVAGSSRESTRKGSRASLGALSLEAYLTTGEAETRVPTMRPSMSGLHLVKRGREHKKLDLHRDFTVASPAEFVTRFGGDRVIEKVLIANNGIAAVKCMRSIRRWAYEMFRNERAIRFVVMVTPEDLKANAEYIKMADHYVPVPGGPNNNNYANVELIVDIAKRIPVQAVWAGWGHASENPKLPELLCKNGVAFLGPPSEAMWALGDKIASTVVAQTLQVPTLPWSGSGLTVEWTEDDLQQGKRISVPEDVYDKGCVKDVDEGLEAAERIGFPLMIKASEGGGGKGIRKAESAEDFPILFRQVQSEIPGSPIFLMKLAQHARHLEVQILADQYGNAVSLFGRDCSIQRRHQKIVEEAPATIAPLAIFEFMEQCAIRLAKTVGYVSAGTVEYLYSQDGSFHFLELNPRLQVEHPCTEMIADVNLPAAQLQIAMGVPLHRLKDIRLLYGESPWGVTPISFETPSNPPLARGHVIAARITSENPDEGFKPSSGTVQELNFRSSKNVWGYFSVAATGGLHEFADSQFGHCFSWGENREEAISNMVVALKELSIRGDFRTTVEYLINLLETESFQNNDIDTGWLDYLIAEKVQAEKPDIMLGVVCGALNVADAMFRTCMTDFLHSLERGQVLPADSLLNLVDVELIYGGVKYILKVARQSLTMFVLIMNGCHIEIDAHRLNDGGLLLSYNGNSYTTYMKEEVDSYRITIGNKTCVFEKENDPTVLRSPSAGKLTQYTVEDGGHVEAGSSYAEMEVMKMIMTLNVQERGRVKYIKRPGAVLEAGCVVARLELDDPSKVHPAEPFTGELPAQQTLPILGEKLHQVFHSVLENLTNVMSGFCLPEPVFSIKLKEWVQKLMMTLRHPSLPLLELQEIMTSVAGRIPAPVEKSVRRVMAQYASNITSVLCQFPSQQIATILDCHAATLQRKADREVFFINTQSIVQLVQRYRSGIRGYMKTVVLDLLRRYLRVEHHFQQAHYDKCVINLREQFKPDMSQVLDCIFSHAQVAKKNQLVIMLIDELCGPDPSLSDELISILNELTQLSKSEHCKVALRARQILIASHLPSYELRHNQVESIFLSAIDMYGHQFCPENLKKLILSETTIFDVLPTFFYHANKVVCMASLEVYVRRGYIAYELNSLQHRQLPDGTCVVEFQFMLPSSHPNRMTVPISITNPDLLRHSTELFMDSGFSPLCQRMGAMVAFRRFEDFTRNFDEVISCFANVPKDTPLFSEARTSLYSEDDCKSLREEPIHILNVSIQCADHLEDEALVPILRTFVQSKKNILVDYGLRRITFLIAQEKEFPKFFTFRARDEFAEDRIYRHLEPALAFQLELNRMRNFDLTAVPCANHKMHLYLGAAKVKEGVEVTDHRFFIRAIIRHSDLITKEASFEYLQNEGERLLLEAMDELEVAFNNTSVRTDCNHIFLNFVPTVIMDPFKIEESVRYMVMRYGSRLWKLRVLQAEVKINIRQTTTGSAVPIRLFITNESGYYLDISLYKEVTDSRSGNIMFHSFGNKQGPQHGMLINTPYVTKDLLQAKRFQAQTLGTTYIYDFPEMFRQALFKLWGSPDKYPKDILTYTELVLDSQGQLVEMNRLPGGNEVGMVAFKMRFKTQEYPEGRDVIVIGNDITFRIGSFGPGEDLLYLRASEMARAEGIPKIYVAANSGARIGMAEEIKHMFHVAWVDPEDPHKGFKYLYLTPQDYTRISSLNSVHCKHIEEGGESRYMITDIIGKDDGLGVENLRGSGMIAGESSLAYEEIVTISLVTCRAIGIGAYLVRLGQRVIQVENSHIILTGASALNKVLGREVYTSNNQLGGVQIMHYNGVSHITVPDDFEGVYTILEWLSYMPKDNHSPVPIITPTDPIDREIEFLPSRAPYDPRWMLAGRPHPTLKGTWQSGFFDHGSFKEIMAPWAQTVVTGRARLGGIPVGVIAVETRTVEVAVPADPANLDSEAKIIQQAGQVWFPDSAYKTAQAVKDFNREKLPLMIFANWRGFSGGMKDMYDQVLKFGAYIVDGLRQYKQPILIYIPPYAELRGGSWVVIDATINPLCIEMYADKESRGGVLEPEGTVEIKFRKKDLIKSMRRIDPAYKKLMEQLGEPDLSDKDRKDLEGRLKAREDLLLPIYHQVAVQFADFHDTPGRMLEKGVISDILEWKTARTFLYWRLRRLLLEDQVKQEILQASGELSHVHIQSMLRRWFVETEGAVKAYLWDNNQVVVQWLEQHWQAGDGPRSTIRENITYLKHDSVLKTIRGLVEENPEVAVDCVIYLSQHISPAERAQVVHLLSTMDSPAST
Outline: (§1)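 His-tagged full-length hACC1 or hACC2 (residues 1-148 deleted, Met-Gly added), expressed in sf9 cells with biotin and purified, were assayed by [14C]bicarbonate incorporation into acetyl-CoA. Reactions at pH 7.4 with 2 mM acetyl-CoA, 12 mM NaHCO3 and 1% DMSO were started with 2 mM ATP and run 10 min at 37° C. Acid-stable label was counted and IC50 obtained from dose-response fits.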

hACC1 = molecular target: T2, hACC1 (Homo sapiens, UniProt Q13085); assay: as above; format: biochemical; settings: recombinant hACC1, overall ACC activity
T2 construct: PCR primers were designed for full-length hACC1 and hACC2 using GenBank submissions AY237919 and AJ575592, respectively; His tag (C); made in house; host or cells: baculovirus, Sf9 insect cells
Outline: as §1

[1] = test system: PC-3 human prostate cancer cells; assay: MTT Cell Proliferation Assay; format: cell-based; settings: 72 hours, read-out: Percent of Control PC-3
Outline: (§2)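 Cells seeded and grown 24 h at 37 °C, 5% CO2, then exposed to compound for 72 h. Viability read by MTT reduction (4 h) after overnight lysis/solubilization. Results expressed as percent of control versus compound concentration.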

[2] = test system: A2780 human ovary cancer cells; assay: MTT Cell Proliferation Assay; format: cell-based; settings: 72 hours, read-out: Percent of Control A2780
Outline: as §2

[3] = test system: HCT-116 human colon cancer cells; assay: MTT Cell Proliferation Assay; format: cell-based; settings: 72 hours, read-out: Percent of Control HCT-116
Outline: as §2

[4] = test system: MDA-MB-231 human breast cancer cells; assay: MTT Cell Proliferation Assay; format: cell-based; settings: 72 hours, read-out: Percent of Control MDA-MB-231
Outline: as §2

With COc1cc(C(=O)N2CCC3(CC2)NC(=O)c2cc(OC(C)C)ccc2O3)nc2c(OC)cccc12 [Compound 169] as the compound, how does the IC50 (hACC2) read?
The IC50 was 7.4 nM.

What about the IC50 (hACC1) of the same compound?
The IC50 was 7.5 nM.

What about the activity at 3.3 µM [1] of the same compound?
Its activity at 3.3 µM is 54.7%.

What about the activity at 10 µM [1] of the same compound?
Its activity at 10 µM is 52.1%.

What about the activity at 3.3 µM [2] of the same compound?
Its activity at 3.3 µM is 80.5%.

What about the activity at 10 µM [2] of the same compound?
The activity at 10 µM was 56.5%.

And the activity at 3.3 µM [3]?
Its activity at 3.3 µM is 57.2%.

And the activity at 10 µM [3]?
The activity at 10 µM was 45%.

What about the activity at 3.3 µM [4] of the same compound?
Its activity at 3.3 µM is 81.4%.

And the activity at 10 µM [4]?
The activity at 10 µM was 47.8%.

Which results are given for COc1ccc2c(c1)C(=O)NC1(CCN(C(=O)c3cc(OC)c4cccc(OC)c4n3)CC1)O2 [Compound 150]?
IC50 (hACC2): 23 nM; IC50 (hACC1): 26 nM; activity at 3.3 µM [1]: 60.7%; activity at 10 µM [1]: 47.7%; activity at 3.3 µM [2]: 86.5%; activity at 10 µM [2]: 57.6%; activity at 3.3 µM [3]: 70.2%; activity at 10 µM [3]: 59.4%; activity at 3.3 µM [4]: 76.1%; activity at 10 µM [4]: 50.2%

COc1cc(C(=O)N2CCC3(CC2)NC(=O)c2cc(Br)ccc2O3)nc2c(OC)cccc12 [Compound 2, 6-Bromo-1′-[(4,8-dimethoxyquinoline-2-yl)carbonyl]spiro[2H-1,3-benzoxazine-2,4′-piperidine]-4(3H)-one] was tested. Which IC50 (hACC2) did it give?
The IC50 was 51 nM.

What about the IC50 (hACC1) of the same compound?
The IC50 was 88 nM.
